Test results reported in ChEMBL document CHEMBL6078673, “Synthesis and anti-tumor activity of menthylamine derivatives: Focusing on the potent inhibitory effect of compound W8 on glioma growth” (Bioorg Med Chem, 2025).
pIC50: −log10 of the molar value. In brackets after ≈: the same amount, converted by molar mass. Activity calls are given as the source filed them. The calls are words filed in the database; no cut-off is given here.

Assays:
U-87 MG [1] = assay: Induction of cell cycle arrest in human U87 cells assessed as increase in number of cells at S phase at 80 uM incubated for 24 hrs by RNase/PI staining based flow cytometry; assay type: functional; details: U-87MG ATCC
[2] = Apparent permeability across basolateral to apical side in human Caco-2 cells at 2 uM incubated for 2 hrs by LC-MS/MS analysis; assay type: ADME, cell-based; details: for Papp B→A at 2 h, 2 µM: Caco-2; for Papp: caco-2, 2 h, 2 µM
MCF7 = assay: Antiproliferative activity against human MCF7 cells assessed as inhibition of cell growth incubated for 24 hrs by CCK-8 assay; assay type: functional, cell-based; details: MCF7, 24 h
U-87 MG [3] = assay: Induction of apoptosis in human U87 cells assessed as increase in number of apoptotic cells at 80 uM incubated for 24 hrs by Annexin V-FITC/PI staining based flow cytometry; assay type: functional, cell-based; details: U-87MG ATCC
[4] = Efflux ratio of apparent permeability from basolateral to apical side over apical to basolateral side in human Caco-2 cells at 2 uM incubated for 2 hr by LC-MS/MS analysis; assay type: ADME, cell-based; details: for efflux ratio at 2 h, 2 µM: Caco-2; for Ratio: caco-2, 2 h, 2 µM
[5] = Kinetic solubility in PBS at pH 7.4 incubated under shaking condition for 24 hrs by LC-MS/MS analysis; assay type: physicochemical; details: read-out: Kinetic_solubility
U-87 MG [6] = assay: Induction of apoptosis in human U87 cells at 80 uM incubated for 24 hrs by Annexin V-FITC/PI staining based flow cytometry; assay type: functional, U-87MG ATCC
U-87 MG [7] = assay: Induction of cell cycle arrest in human U87 cells assessed as decrease in number of cells at G1 phase at 80 uM incubated for 24 hrs by RNase/PI staining based flow cytometry; assay type: functional; details: U-87MG ATCC
[8] = Apparent permeability across apical to basolateral side in human Caco-2 cells at 2 uM incubated for 2 hrs by LC-MS/MS analysis; assay type: ADME, cell-based; details: for Papp A→B at 2 h, 2 µM: Caco-2; for Papp: caco-2, 2 h, 2 µM
[9] = Metabolic stability in liver microsomes (unknown origin) assessed as half life incubated for 60 mins by LC-MS/MS analysis; assay type: ADME, Microsome
U-87 MG [10] = assay: Antiproliferative activity against human U87 cells assessed as inhibition of cell growth incubated for 24 hrs by CCK-8 assay; assay type: functional, cell-based, U-87MG ATCC
HCT-116 = assay: Antiproliferative activity against human HCT-116 cells assessed as inhibition of cell growth incubated for 24 hrs by CCK-8 assay; assay type: functional, cell-based; details: HCT-116, 24 h
[11] = Metabolic stability in liver microsomes (unknown origin) assessed as compound remaining incubated for 60 mins by LC-MS/MS analysis; assay type: ADME, Microsome; details: read-out: Stability
U-87 MG [12] = assay: Inhibition of cell migration in human U87 cells at 80 uM incubated for 48 hrs by scratch assay; assay type: functional, cell-based; details: U-87MG ATCC
U-87 MG [13] = assay: Induction of cell cycle arrest in human U87 cells assessed as decrease in number of cells at G2 phase at 80 uM incubated for 24 hrs by RNase/PI staining based flow cytometry; assay type: functional; details: U-87MG ATCC
KYSE-150 cell line = assay: Antiproliferative activity against human KYSE-150 cell line assessed as inhibition of cell growth incubated for 24 hrs by CCK-8 assay; assay type: functional, cell-based; details: KYSE-150, 24 h
U-87 MG [14] = assay: Induction of cell cycle arrest in human U87 cells assessed as decrease in number of cells at S phase at 80 uM incubated for 24 hrs by RNase/PI staining based flow cytometry; assay type: functional; details: U-87MG ATCC
U-87 MG [15] = assay: Induction of cell cycle arrest in human U87 cells assessed as increase in number of cells at G2 phase at 80 uM incubated for 24 hrs by RNase/PI staining based flow cytometry; assay type: functional; details: U-87MG ATCC
U-87 MG [16] = assay: Induction of cell cycle arrest in human U87 cells assessed as increase in number of cells at G1 phase at 80 uM incubated for 24 hrs by RNase/PI staining based flow cytometry; assay type: functional; details: U-87MG ATCC

Structure (SMILES) | Activity (U-87 MG [1]) | Papp B→A at 2 h, 2 µM [2] [×10⁻⁶ cm/s] | pIC50 (MCF7) | Activity (U-87 MG [3]) | efflux ratio at 2 h, 2 µM [4] | solubility kinetic at 24 h [5] [µM] | Activity (U-87 MG [7]) | Papp A→B at 2 h, 2 µM [8] [×10⁻⁶ cm/s] | half-life [9] [min] | pIC50 (U-87 MG [10]) | pIC50 (HCT-116) | remaining at 1 h [11] [%] | inhibition (U-87 MG [12]) | Activity (U-87 MG [13]) | pIC50 (KYSE-150 cell line) | Activity (U-87 MG [6]; U-87MG ATCC) | also measured
CC(C)[C@H]1CC[C@H](C)C[C@@H]1N | inactive | 23.5 | 2.19 | Active; Significantly Increased Activity Observed | 0.53 | 146 (≈ 22.6 µg/mL) | inactive | 46 | > 145 | 2.49 | 2.19 | 79.4 | Active | inactive | 2.19 |  | Activity (U-87 MG [6]): 90%
CC(C)[C@@H]1CC[C@@H](C)C[C@@H]1OC(=O)c1ccc([N+](=O)[O-])cc1 | inactive | 12.1 | 2.57 | Active; Significantly Increased Activity Observed | 0.51 | 0.031 (≈ 0.00947 µg/mL) | inactive | 24.4 | 25 | 3.96 | 3.10 | 33.3 | Active | inactive | 2.45 | Active | 
C[C@H]1O[C@@H](O[C@H]2[C@@H](O)C[C@H](O[C@H]3[C@@H](O)C[C@H](O[C@H]4CC[C@@]5(C)[C@H](CC[C@@H]6[C@@H]5C[C@@H](O)[C@]5(C)[C@@H](C7=CC(=O)OC7)CC[C@]65O)C4)O[C@@H]3C)O[C@@H]2C)C[C@H](O)[C@@H]1O [DIGOXIN] |  | 18.6 |  |  | 127 |  |  | 0.15 |  |  |  |  |  |  |  |  | 
CC(C)[C@H]1CC[C@H](C)C[C@H]1N1C(=O)c2ccccc2C1=O |  | 12.6 | 2.83 | Active; Significantly Increased Activity Observed | 0.52 | 0.03 (≈ 0.00856 µg/mL) |  | 25.7 | > 145 | 4.18 | 4.24 | 80.4 | Active |  | < 3.01 | Active | Activity (U-87 MG [14]): Active; Activity (U-87 MG [15]): Active; Activity (U-87 MG [16]): Active
Cn1nnc2c(C(N)=O)ncn2c1=O [TEMOZOLOMIDE] |  |  |  |  |  |  |  |  |  | 2.82 |  |  |  |  |  |  | 
CC(C)[C@@H]1CC[C@@H](C)C[C@H]1OC(=O)c1ccc([N+](=O)[O-])cc1 | inactive | 11.2 | 3.04 | Active; Significantly Increased Activity Observed | 0.48 | 0.61 (≈ 0.186 µg/mL) | inactive | 24 | 25.2 | 4.03 | 3.19 | 32.6 | Active | inactive | < 2.50 | Active | 
CC(C)[C@H]1CC[C@@H](C)C[C@H]1N | Active | 24.7 | 2.45 | Active; Significantly Increased Activity Observed | 0.59 | 147 (≈ 22.8 µg/mL) | Active | 41.8 | > 145 | 3.65 | 3.07 | 79.4 | Active | Active | 2.37 |  | Activity (U-87 MG [6]): 90%
CC(C)[C@@H]1CC[C@@H](C)C[C@H]1O [LEVOMENTHOL] | inactive |  | 2.90 | inactive |  |  | inactive |  |  | 3.70 | 3.11 |  | Active | inactive | 3.11 |  | 
COCCc1ccc(OCC(O)CNC(C)C)cc1 (centres undefined) [METOPROLOL] |  |  |  |  |  |  |  | 25.1 |  |  |  |  |  |  |  |  | 
CC(C)[C@H]1CC[C@H](C)C[C@H]1N |  |  | < 2.90 | Active; Significantly Increased Activity Observed |  | 0.625 (≈ 0.0971 µg/mL) |  |  | > 145 | 3.50 | 3.20 | 81.8 | Active |  | < 2.48 | Active | Activity (U-87 MG [14]): Active; Papp [2]: 22.23 10^-6 cm/s; Ratio [4]: 0.55; Papp [8]: 23.47 10^-6 cm/s; Activity (U-87 MG [15]): Active; Activity (U-87 MG [16]): Active
C[C@]12CC[C@H]3[C@@H](CCC4=CC(=O)CC[C@@]43C)[C@@H]1CC[C@@H]2O [TESTOSTERONE] |  |  |  |  |  |  |  |  |  |  |  | 91 |  |  |  |  | 
CC(C)[C@H]1CC[C@@H](C)C[C@@H]1N |  |  | < 2.19 | Active; Significantly Increased Activity Observed |  | 150 (≈ 23.3 µg/mL) |  |  | > 145 | 2.76 | < 3.50 | 75.4 | Active |  | < 2.19 | Active | Activity (U-87 MG [14]): Active; Papp [2]: 23.22 10^-6 cm/s; Ratio [4]: 0.5; Papp [8]: 40.16 10^-6 cm/s; Activity (U-87 MG [15]): Active; Activity (U-87 MG [16]): Active
CC(C)[C@H]1CC[C@H](C)C[C@@H]1O [RACEMENTHOL] | inactive |  | 2.43 | inactive |  |  | inactive |  |  | 3.17 | 2.94 |  | Active | inactive | 2.44 |  | 
CC(C)(C)NCC(O)COc1cccc2c1CC(O)C(O)C2 (centres undefined) [NADOLOL] |  |  |  |  |  |  |  | 0.04 |  |  |  |  |  |  |  |  | 
O=C(O)Cc1ccccc1Nc1c(Cl)cccc1Cl [DICLOFENAC] |  |  |  |  |  |  |  |  | 5.32 |  |  | 97.8 |  |  |  |  | 
